Data taken from patent US20210290651A1, “METHODS OF TREATING VIRAL INFECTIONS USING INHIBITORS OF NUCLEOTIDE SYNTHESIS PATHWAYS” (priority 2020, published 2021).
Read-outs that look alike come from different tables or passages of the source.

Experiments:
HRV1A strain 2060 = assay: Rhinovirus antiviral assay, inhibition of virus-induced cell killing (XTT) in H1-HeLa cells; assay type: cell-based; settings: Enterovirus
SARS-CoV-2 = assay: microbe, parasite or virus in culture; assay type: cell-based
[1] = system: acute myeloid leukemia (AML); assay: Clinical response of patients with AML to brequinar-containing composition; assay type: in vivo, human
RNA virus = assay: Daily brequinar for five days in subject infected with an RNA virus (Example 19); assay type: in vivo; settings: single daily dose for five consecutive days, first peak in brequinar level
Description: The mechanism by which administration of a DHODH inhibitor according to a daily dosing regimen inhibits viral replication is illustrated below. […] Throughout the course of the dosing regimen, levels of intracellular pyrimidines, such as uridine, and viral replication are measured.

[2] = in vivo
[3] = in vivo; remark: listed apart in the source
DHODH [4] = biological target: DHODH (Homo sapiens, UniProt Q02127); settings: concentrations >1 μM
Chain of DHODH (Homo sapiens, UniProt Q02127) (Q02127 whole entry): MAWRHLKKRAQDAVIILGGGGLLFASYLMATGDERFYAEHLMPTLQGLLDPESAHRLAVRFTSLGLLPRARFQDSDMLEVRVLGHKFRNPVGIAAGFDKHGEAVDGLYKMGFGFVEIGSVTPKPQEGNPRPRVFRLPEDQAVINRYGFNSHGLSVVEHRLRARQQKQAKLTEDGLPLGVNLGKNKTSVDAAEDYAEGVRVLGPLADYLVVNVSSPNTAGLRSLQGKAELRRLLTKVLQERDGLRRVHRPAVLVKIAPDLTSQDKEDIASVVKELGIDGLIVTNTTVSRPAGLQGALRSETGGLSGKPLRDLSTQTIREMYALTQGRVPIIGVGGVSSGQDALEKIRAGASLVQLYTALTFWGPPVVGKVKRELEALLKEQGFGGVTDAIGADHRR

DHODH [5] = system: DHODH
Dengue = settings: A549 (human alveolar basal epithelial); cited from earlier work
Zika = settings: Vero76 (monkey kidney); cited from earlier work
Ebola = settings: HeLa (human cervical tumor); cited from earlier work
Yellow Fever = settings: Vero (monkey kidney); cited from earlier work
VSV = settings: HuH7 (human hepatocellular carcinoma); cited from earlier work
FMDV (O/MY98/BY/2010) = settings: cited from earlier work
FMDV (A/GD/MM/2013) = settings: cited from earlier work
solid tumor malignancies = settings: 5-day period followed by 3-week gap, or once per week for three weeks followed by 1-week gap; cited from earlier work
AML = settings: cited from earlier work
in vivo = settings: rodents
in vitro = settings: monkey, CC50, Vero E6
[6] = system: A549 (human alveolar basal epithelial); settings: A549, Dengue row; cited from earlier work
Vero76 (monkey kidney) = settings: Vero76, Zika row; cited from earlier work
[7] = system: Respiratory Syncytial (RSV); settings: A549 or HEp-2 (human epithelial); cited from earlier work
[8] = system: A549 or HEp-2 (human epithelial); settings: A549 or HEp-2, RSV row; cited from earlier work
HIV1 = settings: HIV1, TZM-bl(human cervical tumor); cited from earlier work
[9] = system: TZM-bl(human cervical tumor); settings: HIV1 row; cited from earlier work
[10] = system: Influenza A H1N1(California); settings: MDCK (canine kidney); cited from earlier work
Influenza A H3N2 = settings: Influenza A H3N2, MDCK (canine kidney); cited from earlier work
Influenza B (Brisbane) = settings: MDCK (canine kidney); cited from earlier work
Influenza A H1N1(BIRFLU) [11] = settings: MDCK (canine kidney); cited from earlier work
MDCK (canine kidney) = settings: H1N1(BIRFLU) row; cited from earlier work
Influenza A H1N1(BIRFLU) [12] = settings: A549 (human alveolar basal epithelial); cited from earlier work
[13] = system: A549 (human alveolar basal epithelial); settings: A549, H1N1(BIRFLU) row; cited from earlier work
[14] = system: Influenza A H1N1 (New Caledonia); settings: 16HBE (human bronchial epithelial); cited from earlier work
[15] = system: 16HBE (human bronchial epithelial); settings: H1N1 (New Caledonia) row; cited from earlier work
Vero (monkey kidney) = settings: cited from earlier work
[16] = system: HuH7 (human hepatocellular carcinoma); settings: cited from earlier work
IBRS-2 (swine kidney) = settings: cited from earlier work
CMV = settings: Primary Human Fibroblasts; cited from earlier work
[17] = system: Primary Human Fibroblasts; settings: CMV row; cited from earlier work
CYP = CYP inhibition
[18] = Cytotoxicity in H1-HeLa cells (XTT); settings: human, H1-HeLa cells (CRL-1958)
[19] = Adverse events in subjects receiving brequinar intravenously once a week; settings: IV once a week, 209 subjects

## Cc1c(-c2ccc(-c3ccccc3F)cc2)nc2ccc(F)cc2c1C(=O)O [brequinar, 6-fluoro-2-(2′-fluoro-1,1′ biphenyl-4-yl)-3-methyl-4-quinoline carboxylic acid]
HRV1A strain 2060
  EC50: 50 nM
SARS-CoV-2
  E(Max): 88.2
  lowering of the EC50 of remdesivir by brequinar: > 40 fold
SARS-CoV-2; Severe acute respiratory syndrome coronavirus 2, Vero C1008
  EC90: 345 nM
SARS-CoV-2; Severe acute respiratory syndrome coronavirus 2, Vero C1008, Vero E6, read-out: maximal inhibitory activity (Emax) compared to the no infection control
  Emax: 88.2%
[1]; first patient (Example 12): reduction in bone marrow blast count, improved extramedullary hematopoiesis, more differentiated peripheral blasts
  response: positive response
[1]; patient of Example 14: trend towards differentiation of peripheral blasts
  response: positive response
[1]; second patient (Example 13): lowering of peripheral blasts, increase in absolute neutrophil count, greater differentiation
  response: positive response
RNA virus
  intracellular pyrimidine levels: dramatic decrease in the intracellular pyrimidine pool
[2]
  cumulative effect of repeated doses: No cumulative effective of repeated doses
[3]
  equivalence of oral and IV formulations: oral and IV formulations are equivalent
DHODH [4]
  DHODH inhibition: almost completely inhibited
DHODH [5]; human, in vivo
  DHO plasma level threshold achieved: 133 ng/mL
DHODH [5]; patient with AML of Example 14
  time to achieve DHO plasma level threshold: less than 2 hours
Dengue
  EC50: 78 nM
Zika
  EC50: 80 nM
Ebola
  EC50: 100 nM
Yellow Fever
  EC50: 20 nM
VSV
  EC50: 14 nM
FMDV (O/MY98/BY/2010)
  EC50: 30000 nM
FMDV (A/GD/MM/2013)
  EC50: < 3000 nM
Solid tumor malignancies
  efficacy in solid tumor malignancies: ineffective
AML; daily administration of high doses
  toxicity: weight loss, anemia, and thrombocytopenia
AML; only when elevated plasma levels are maintained for extended periods
  leukemia-initiating cell activity: decreases leukemia-initiating cell activity
In vivo
  Kp: ~0.5
In vitro
  CC50 at 3 days: > 50000 nM
[6]
  CC50: > 5000 nM
Vero76 (monkey kidney)
  CC50: > 50000 nM
[7]
  EC50: 53 nM
[8]
  CC50: > 10000 nM
HIV1
  EC50: 40 nM
[9]
  CC50: > 30000 nM
[10]
  EC50: 780 nM
Influenza A H3N2
  EC50: 620 nM
Influenza B (Brisbane)
  EC50: 250 nM
Influenza A H1N1(BIRFLU) [11]
  EC50: 580 nM
MDCK (canine kidney)
  CC50: > 50000 nM
Influenza A H1N1(BIRFLU) [12]
  EC50: 140 nM
[13]
  CC50: > 50000 nM
[14]
  EC50: 140 nM
[15]
  CC50: > 50000 nM
Vero (monkey kidney)
  CC50: > 50000 nM
[16]
  CC50: > 25000 nM
IBRS-2 (swine kidney)
  CC50: 100000 nM
CMV
  EC50: 800 nM
[17]
  CC50: > 50000 nM
CYP
  CYP inhibition: Does not inhibit CYP
[18]
  CC50 at 3 days: 300 nM
[19]
  Infection: No. of Patients: 7
  Infection: No. of Patients Experiencing the AE, Max Grade 1: 4
  Infection: No. of Patients Experiencing the AE, Max Grade 2: 3
  Infection: No. of Patients Experiencing the AE, Max Grade 3: 0
  Infection: No. of Patients Experiencing the AE, Max Grade 4: 0
  Infection: Percent: 3.3%
